In patent publication US4297353A, “Non-irritating injectable dosage forms” (priority 1980, dated 1981):
Read-outs that look alike come from different tables or passages of the source.

How the values were obtained:
[1] = system: muscles of rabbits (sacrospinales group); assay: Intramuscular tissue irritation in rabbits, microscopic observations (Example 2)
[2] = system: muscles of rabbits (sacrospinales group); conditions: rabbit, in vivo

CSc1ccc2c(c1)N(CCC1CCCCN1C)c1ccccc1S2 (stereo not drawn) [Mellaril base, thioridazine] was tested, and the “evidence of suppuration in the inflammatory zone” value ([1]; Day 4 post-injection, regardless of concentration) was “high-frequency evidence of suppuration” and the “evidence of connective tissue irritation” value ([1]; Day 7 and Day 14) was “became apparent by Day 7 and more frequent and extreme in its occurrence by Day 14”.

For CN(C)CCCN1c2ccccc2Sc2ccc(Cl)cc21 [chloropromazine, Chlorpromazine], the “evidence of connective tissue irritation” value [2] was “became apparent by Day 7 and more frequent and extreme in its occurrence by Day 14”.
